Measurements from patent US5268281A, “Cyclic FR-900520 microbial biotransformation agent” (Merck & Co., Inc., priority 1992, dated 1993).
Entries after “also recorded” stand apart in the source; their conditions may differ.

What was measured:
[1] = test system: mouse T lymphocytes (Splenic T-cells); test: T-Cell Proliferation Assay: inhibition of tritiated thymidine uptake in splenic T-cells stimulated with ionomycin + PMA; type: cell-based, mouse (C57Bl/6)
Experimental: The principle of this assay is to measure the proliferation of mouse T lymphocytes stimulated with the combination of ionomycin plus PMA.
Cells were pelleted by centrifugation at 1500 rpm for 8 minutes. Contaminating red cells were removed by treating the pellet with ammonium chloride lysing buffer (GIBCO) for 2 minutes at 4° C. Cold medium was added and cells were again centrifuged at 1500 rpm for 8 minutes. T lymphocytes were then isolated by separation of the cell suspension on nylon wool columns as follows: Nylon wool columns were prepared by packing approximately 4 grams of washed and dried nylon wool into 20 ml plastic syringes. The columns were sterilized by autoclaving at 250° F. for 30 minutes. Nylon wool columns were wetted with warm (37° C.) culture medium and rinsed with the same medium. Washed spleen cells resuspended in warm medium were slowly applied to the nylon wool. The columns were then incubated in an upright position at 37° C. for 1 hour. Non-adherent T lymphocytes were eluted from the columns with warm culture medium and the cell suspensions were spun as above.
The cell suspension was immediately distributed into 96 well flat-bottom microculture plates (Costar) at 200 μl/well. […] The proliferation of T lymphocytes was assessed by measurement of tritiated thymidine incorporation. After 44 hours of culturing, the cells were pulse-labelled with 2 μCi/well of tritiated thymidine (NEN, Cambridge, Mass.). After another 4 hours of incubation, cultures were harvested on glass fiber filters using a multiple sample harvester. Radioactivity of filter discs corresponding to individual wells was measured by standard liquid scintillation counting methods (Betacounter). Mean counts per minute of replicate wells were calculated and the results expressed as percent inhibition of tritiated thymidine uptake (proliferation) as follows: [formula]

[2] = EPO Publication No. 0184162; cited from earlier work
[3] = Solubility (physical characteristics); type: physicochemical; conditions: in methanol

Solubility [3]	Structure (SMILES)	inhibition at 0.01 µg/mL ([1]; Mus musculus, T-cell, 48 h, read-out: inhibition (Standard))	effectiveness relative to cyclosporin (reputed) [2]	reversal of inhibition of T-cell proliferation by addition of IL2 ([1]; 50 units/ml recombinant IL2 at the initiation of culture)	FK-506 immunosuppressant activity / immunosuppressive activity in T-cell proliferation assay ([1]; ionomycin plus PMA, result in words)
	C=CC[C@@H]1/C=C(\C)C[C@H](C)C[C@H](OC)[C@H]2O[C@@](O)(C(=O)C(=O)N3CCCC[C@H]3C(=O)O[C@H](/C(C)=C/[C@@H]3CC[C@@H](O)[C@H](OC)C3)[C@H](C)[C@@H](O)CC1=O)[C@H](C)C[C@@H]2OC [FR900506, reference compound]	99%	100 times		
Solubility in methanol	CC[C@@H]1C=C2COC1(O)C[C@H](O)[C@@H](C)[C@@H](/C(C)=C/[C@@H]1CC[C@@H](O)[C@H](OC)C1)OC(=O)[C@@H]1CCCCN1C(=O)C(=O)[C@]1(O)O[C@H]([C@@H](OC)C[C@@H](C)C2)[C@@H](OC)C[C@H]1C [Compound I]			reversed	positive inhibition of T-cell activation; also recorded: positive immunosuppressive activity
